In ChEMBL document CHEMBL1921713, “A simple synthesis of APM ([p-(N-acrylamino)-phenyl]mercuric chloride), a useful tool for the analysis of thiolated biomolecules” (Bioorg Med Chem Lett, 2011):
The source made the active and inactive calls. The rule behind the calls is not given here.

Columns and labels:
Assay type in all cases: nucleic-acid assay
[1] = tested on: Nucleic Acid; assay: Binding affinity to ctu1-deficient Schizosaccharomyces pombe Lys-tRNA using 32P-labelled probe by PAGE analysis
[2] = tested on: Nucleic Acid; assay: Binding affinity to Schizosaccharomyces pombe Thiolated Lys-tRNA using 32P-labelled probe by PAGE analysis
[3] = tested on: Nucleic Acid; assay: Binding affinity to Schizosaccharomyces pombe Non-thiolated Met-tRNA using 32P-labelled probe by PAGE analysis

Question: For “[p-(N-acrylamino)-phenyl]mercuric chloride”, which Activity [1] is on record?
Answer: inactive

Question: And the Activity [2]?
Answer: Active

Question: What about the Activity [3] of the same substance?
Answer: inactive
